The source made the active and inactive calls. The calls are words filed in the database; no cut-off is given here.
Experiments:
[1] = Drug concentration in C57BL/6J mouse brain at 9 mg/kg,iv administration measured after 30 mins by LC-MS analysis; assay type: ADME, organism-based; conditions: read-out: Ct
[2] = system: LN-229; assay: Antiproliferative activity against human LN-229 cells assessed as inhibition of cell growth incubated for 68 hrs by CCK-8 assay; assay type: functional, cell-based; conditions: LN-229, 68 h
[3] = system: U-87 MG; assay: Induction of apoptosis in human U-87 MG cells assessed as viable cells at 10 uM incubated for 24 hrs by Annexin V-APC/7-AAD staining based flow cytometric analysis (reference value: 94 %); assay type: functional, U-87MG ATCC; conditions: read-out: Activity
[4] = system: U-87 MG; assay: Induction of apoptosis in human U-87 MG cells assessed as early apoptotic cells at 5 uM incubated for 24 hrs by Annexin V-APC/7-AAD staining based flow cytometric analysis (reference value: 1.59 %); assay type: functional, U-87MG ATCC
[5] = system: U-87 MG; assay: Induction of apoptosis in human U-87 MG cells assessed as early apoptotic cells at 10 uM incubated for 24 hrs by Annexin V-APC/7-AAD staining based flow cytometric analysis (reference value: 1.59 %); assay type: functional, U-87MG ATCC
[6] = system: U-87 MG; assay: Induction of apoptosis in human U-87 MG cells assessed as early apoptotic cells at 20 uM incubated for 24 hrs by Annexin V-APC/7-AAD staining based flow cytometric analysis (reference value: 1.59 %); assay type: functional, U-87MG ATCC
[7] = system: U-87 MG; assay: Induction of apoptosis in human U-87 MG cells assessed as late apoptotic cells at 5 uM incubated for 24 hrs by Annexin V-APC/7-AAD staining based flow cytometric analysis (reference value: 4.22 %); assay type: functional, U-87MG ATCC
[8] = system: U-87 MG; assay: Induction of apoptosis in human U-87 MG cells assessed as necrotic cells at 10 uM incubated for 24 hrs by Annexin V-APC/7-AAD staining based flow cytometric analysis (reference value: 0.21 %); assay type: functional, U-87MG ATCC
[9] = system: LN-229; assay: Induction of apoptosis in human LN-229 cells assessed as viable cells at 5 uM incubated for 24 hrs by Annexin V-APC/7-AAD staining based flow cytometric analysis (reference value: 95.4 %); assay type: functional; conditions: read-out: Activity
[10] = system: LN-229; assay: Induction of apoptosis in human LN-229 cells assessed as late apoptotic cells at 10 uM incubated for 24 hrs by Annexin V-APC/7-AAD staining based flow cytometric analysis (reference value: 3.56 %); assay type: functional
[11] = system: LN-229; assay: Induction of apoptosis in human LN-229 cells assessed as necrotic cells at 20 uM incubated for 24 hrs by Annexin V-APC/7-AAD staining based flow cytometric analysis (reference value: 0.56 %); assay type: functional
[12] = system: U-87 MG; assay: Induction of apoptosis in human U-87 MG cells assessed as viable cells at 20 uM incubated for 12 hrs by Annexin V-APC/7-AAD staining based flow cytometric analysis (reference value: 94.6 %); assay type: functional, U-87MG ATCC; conditions: read-out: Activity
[13] = system: U-87 MG; assay: Induction of apoptosis in human U-87 MG cells assessed as viable cells at 20 uM incubated for 24 hrs by Annexin V-APC/7-AAD staining based flow cytometric analysis (reference value: 94.6 %); assay type: functional, U-87MG ATCC; conditions: read-out: Activity
[14] = system: U-87 MG; assay: Induction of apoptosis in human U-87 MG cells assessed as early apoptotic cells at 20 uM incubated for 24 hrs by Annexin V-APC/7-AAD staining based flow cytometric analysis (reference value: 0.94 %); assay type: functional, U-87MG ATCC
[15] = system: U-87 MG; assay: Induction of apoptosis in human U-87 MG cells assessed as early apoptotic cells at 20 uM incubated for 48 hrs by Annexin V-APC/7-AAD staining based flow cytometric analysis (reference value: 0.94 %); assay type: functional, U-87MG ATCC
[16] = system: U-87 MG; assay: Induction of apoptosis in human U-87 MG cells assessed as late apoptotic cells at 20 uM incubated for 24 hrs by Annexin V-APC/7-AAD staining based flow cytometric analysis (reference value: 3.44 %); assay type: functional, U-87MG ATCC
[17] = system: U-87 MG; assay: Induction of apoptosis in human U-87 MG cells assessed as late apoptotic cells at 20 uM incubated for 48 hrs by Annexin V-APC/7-AAD staining based flow cytometric analysis (reference value: 3.44 %); assay type: functional, U-87MG ATCC
[18] = system: U-87 MG; assay: Induction of apoptosis in human U-87 MG cells assessed as necrotic cells at 20 uM incubated for 12 hrs by Annexin V-APC/7-AAD staining based flow cytometric analysis (reference value: 1 %); assay type: functional, U-87MG ATCC
[19] = system: LN-229; assay: Induction of apoptosis in human LN-229 cells assessed as viable cells at 20 uM incubated for 12 hrs by Annexin V-APC/7-AAD staining based flow cytometric analysis (reference value: 91.7 %); assay type: functional; conditions: read-out: Activity
[20] = system: U-87 MG; assay: Induction of apoptosis in human U-87 MG cells assessed as viable cells at 20 uM incubated for 24 hrs by Annexin V-APC/7-AAD staining based flow cytometric analysis (reference value: 85 %); assay type: functional, U-87MG ATCC; conditions: read-out: Activity
[21] = system: LN-229; assay: Induction of apoptosis in human LN-229 cells assessed as early apoptotic cells at 20 uM incubated for 48 hrs by Annexin V-APC/7-AAD staining based flow cytometric analysis (reference value: 2.46 %); assay type: functional
[22] = system: LN-229; assay: Induction of apoptosis in human LN-229 cells assessed as late apoptotic cells at 20 uM incubated for 24 hrs by Annexin V-APC/7-AAD staining based flow cytometric analysis (reference value: 5.1 %); assay type: functional
[23] = system: U-87 MG; assay: Induction of apoptosis in human U-87 MG cells assessed as early apoptotic cells at 20 uM incubated for 24 hrs in presence of R7050 by Annexin V-APC/7-AAD staining based flow cytometric analysis (reference value: 3.44 %); assay type: functional, U-87MG ATCC
[24] = system: LN-229; assay: Induction of apoptosis in human LN-229 cells assessed as necrotic cells at 20 uM incubated for 24 hrs by Annexin V-APC/7-AAD staining based flow cytometric analysis (reference value: 1.95 %); assay type: functional
[25] = system: LN-229; assay: Induction of apoptosis in human LN-229 cells assessed as viable cells at 20 uM incubated for 24 hrs in presence of R7050 by Annexin V-APC/7-AAD staining based flow cytometric analysis (reference value: 92.3 %); assay type: functional; conditions: read-out: Activity
[26] = system: LN-229; assay: Induction of apoptosis in human LN-229 cells assessed as necrotic cells at 20 uM incubated for 24 hrs in presence of R7050 by Annexin V-APC/7-AAD staining based flow cytometric analysis (reference value: 1.95 %); assay type: functional
[27] = system: U-87 MG; assay: Induction of apoptosis in human U-87 MG cells at 20 uM incubated for 24 hrs by Annexin V-APC/7-AAD staining based flow cytometric analysis (reference value: 5.67 +/- 1.49 %); assay type: functional, U-87MG ATCC
[28] = system: LN-229; assay: Induction of apoptosis in human LN-229 cells at 10 uM incubated for 48 hrs by Annexin V-APC/7-AAD staining based flow cytometric analysis (reference value: 7.32 +/- 0.71 %); assay type: functional
[29] = system: U-87 MG; assay: Induction of apoptosis in human U-87 MG cells assessed as upregulation of cleaved caspase-3 expression incubated for 24 hrs by Western blot analysis; assay type: functional, cell-based; conditions: U-87MG ATCC
[30] = system: LN-229; assay: Induction of apoptosis in human LN-229 cells assessed as reduction in Bcl-2/Bax ratio at 5 to 20 uM incubated for 24 hrs by Western blot analysis; assay type: functional, cell-based; conditions: dose 5-20 µM
[31] = system: U-87 MG; assay: Induction of apoptosis in human U-87 MG cells at 20 uM incubated for 24 hrs in presence of R7050 by Annexin V-APC/7-AAD staining based flow cytometric analysis relative to control; assay type: functional, U-87MG ATCC
[32] = system: LN-229; assay: Induction of apoptosis in human LN-229 cells at 20 uM incubated for 24 hrs by Annexin V-APC/7-AAD staining based flow cytometric analysis relative to control; assay type: functional

CCCCCCCNC(=O)[C@H](Cc1c[nH]c2ccccc12)NC(=O)C(C)(c1c[nH]c2ccccc12)c1c[nH]c2ccccc12
concentration at 0.5 h [1]: 241 ng/g
IC50 [2]: 10.8 µM
viability at 10 µM [3]: 89.2%
Activity [4]: 2.06%
Activity [5]: 4.46%
Activity [6]: 13.7%
Activity [7]: 4.92%
Activity [8]: 0.21%
viability at 5 µM [9]: 95%
Activity [10]: 6.38%
Activity [11]: 1.42%
viability at 20 µM [12]: 93.8%
viability at 20 µM [13]: 92%
Activity [14]: 2.6%
Activity [15]: 5.06%
Activity [16]: 4.03%
Activity [17]: 11.6%
Activity [18]: 1.01%
viability at 20 µM [19]: 92.7%
viability at 20 µM [20]: 65.1%
Activity [21]: 18.5%
Activity [22]: 4.38%
Activity [23]: 8.66%
Activity [24]: 1.94%
viability at 20 µM [25]: 91.4%
Activity [26]: 1.25%
Activity [27]: 13.95%
Activity [28]: 61.42%
Activity [29]: Dose-Dependent Effect
Activity [30]: Active
Activity [31]: 9.37%
Activity [32]: 31.44%

— ChEMBL document CHEMBL5614421, “Structure-activity relationship study of Pseudellone C as anti-glioma agents by targeting TNF/TNFR signaling pathway” (Eur J Med Chem, 2024)
